From patent publication US8263596B2, “Kinase inhibitors and method of treating cancer” (University Health Network, priority 2010, dated 2012)

Tests used:
HUV-EC-C cells = assay: In vitro angiogenesis assay (tube formation); format: cell-based; settings: 4 hr
Description: Activity against these RTKs can result in antiangiogenic activity which is associated with slowed tumor growth and/or tumor regression. To measure the antiangiogenic effects of compounds of the invention, selected examples were tested in an angiogenesis assay as described below.
HUV-EC-C cells were obtained from the American Type Culture Collection (ATCC, CRL-1730), and were used at early passage for the assay. The in vitro Angiogenesis Assay Kit (Chemicon) was used according to the manufacturer's recommendation. An ice-cold mixture of ECMatrix was transferred into a precooled 96-well plate. After the matrix solution had solidified (>1 hr incubation at 37° C.), 8,000 cells were mixed with the appropriate inhibitor concentration (in 100 microlitres EGM-2) and plated into each well. The clinical antiangiogenic, Sutent was used as a positive control in comparison to a compound of the invention, A13. After incubation at 37° C. for 4 hr, tube formation was inspected. Two methods, pattern recognition and branch point counting, were used to quantify the progression of angiogenesis and expressed as a percentage of the control tube count (FIGS. 1 and 2).

human PLK4 = molecular target: T1, human PLK4 (Homo sapiens, UniProt O00444); assay: PLK4 inhibition assay (indirect ELISA); format: biochemical; settings: read-out: IC50 Ranges PLK4
T1 construct: amino terminal GST fusion of residues 1-391 of human PLK4; made in house; host or cells: E. coli
T1 sequence (O00444 1-391): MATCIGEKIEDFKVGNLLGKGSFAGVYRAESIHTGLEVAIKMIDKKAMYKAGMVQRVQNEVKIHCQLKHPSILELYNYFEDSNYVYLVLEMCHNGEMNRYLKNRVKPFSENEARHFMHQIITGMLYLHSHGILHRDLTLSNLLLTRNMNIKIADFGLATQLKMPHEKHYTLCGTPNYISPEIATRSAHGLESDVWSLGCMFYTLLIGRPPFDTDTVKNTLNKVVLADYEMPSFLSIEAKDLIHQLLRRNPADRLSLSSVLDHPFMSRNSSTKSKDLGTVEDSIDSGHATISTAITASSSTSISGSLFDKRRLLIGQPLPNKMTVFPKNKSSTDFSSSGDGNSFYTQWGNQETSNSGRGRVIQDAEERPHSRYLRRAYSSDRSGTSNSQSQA

Aurora B = Aurora B (Homo sapiens, UniProt Q96GD4); assay: Aurora B inhibition assay (Z-Lyte); format: biochemical; settings: read-out: IC50 Ranges Aurora B
FLT3 = molecular target: T2, FLT3 (Homo sapiens, UniProt P36888); assay: FLT3 inhibition assay (Z-Lyte); format: biochemical; settings: read-out: IC50 Ranges Flt3
T2 construct: purchased Invitrogen PV3182
T2 sequence (P36888 27-993): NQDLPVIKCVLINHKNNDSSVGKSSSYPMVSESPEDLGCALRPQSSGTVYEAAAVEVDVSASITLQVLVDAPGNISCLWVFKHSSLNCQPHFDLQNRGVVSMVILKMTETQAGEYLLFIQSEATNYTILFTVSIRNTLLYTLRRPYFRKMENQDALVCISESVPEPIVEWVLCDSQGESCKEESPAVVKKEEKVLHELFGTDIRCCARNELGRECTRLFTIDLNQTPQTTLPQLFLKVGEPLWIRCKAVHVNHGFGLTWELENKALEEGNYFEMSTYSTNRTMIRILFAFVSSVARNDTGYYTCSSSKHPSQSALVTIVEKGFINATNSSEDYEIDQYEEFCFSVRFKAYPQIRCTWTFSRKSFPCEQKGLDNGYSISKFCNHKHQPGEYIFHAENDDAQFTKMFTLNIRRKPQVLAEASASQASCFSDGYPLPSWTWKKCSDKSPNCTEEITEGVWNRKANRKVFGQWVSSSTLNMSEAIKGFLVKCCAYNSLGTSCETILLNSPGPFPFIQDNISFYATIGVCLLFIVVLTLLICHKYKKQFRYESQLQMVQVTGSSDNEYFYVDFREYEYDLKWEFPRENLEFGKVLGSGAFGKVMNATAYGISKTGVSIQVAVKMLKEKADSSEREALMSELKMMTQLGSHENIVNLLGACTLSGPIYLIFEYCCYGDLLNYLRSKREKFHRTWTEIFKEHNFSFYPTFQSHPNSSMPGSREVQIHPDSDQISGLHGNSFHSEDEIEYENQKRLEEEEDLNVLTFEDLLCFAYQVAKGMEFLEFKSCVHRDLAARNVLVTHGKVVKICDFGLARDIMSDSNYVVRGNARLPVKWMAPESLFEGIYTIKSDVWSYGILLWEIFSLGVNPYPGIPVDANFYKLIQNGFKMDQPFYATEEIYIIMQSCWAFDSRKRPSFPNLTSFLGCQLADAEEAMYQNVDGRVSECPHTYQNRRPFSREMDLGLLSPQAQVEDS

Chain of Aurora B (Q96GD4 whole entry): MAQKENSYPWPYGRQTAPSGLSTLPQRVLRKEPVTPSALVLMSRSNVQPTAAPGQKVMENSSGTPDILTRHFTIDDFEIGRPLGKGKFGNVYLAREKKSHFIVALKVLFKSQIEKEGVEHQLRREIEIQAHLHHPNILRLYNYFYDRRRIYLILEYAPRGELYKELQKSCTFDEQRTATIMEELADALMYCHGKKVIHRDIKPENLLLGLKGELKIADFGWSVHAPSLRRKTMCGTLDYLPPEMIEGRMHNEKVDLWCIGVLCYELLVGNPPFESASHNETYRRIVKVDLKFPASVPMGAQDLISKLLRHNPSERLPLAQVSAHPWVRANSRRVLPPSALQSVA

Row | IC50 (human PLK4) | IC50 (Aurora B) | IC50 (FLT3) | SMILES | antiangiogenic effect (tube formation) (HUV-EC-C cells)
1 | – | – | – | COc1ccc2c(c1)[C@]1(C[C@H]1c1ccc3c(-c4ccc(N5CCN(C)CC5)nc4)n[nH]c3c1)C(=O)N2 (relative stereo) [Example A13, (1R*,2S*)-5′-Methoxy-2-(3-(6-(4-methylpiperazin-1-yl)pyridin-3-yl)-1H-indazol-6-yl)spiro[cyclopropane-1,3′-indolin]-2′-one] | anti-agiogenic effects at submicromolar concentrations
2 | – | – | – | O=C1Nc2ccccc2[C@]12C[C@H]2c1ccc2c(/C=C/c3ccncc3)n[nH]c2c1 (relative stereo) [Example A22, (1R*,2S*)-(E)-2-(3-(2-(pyridin-4-yl)vinyl)-1H-indazol-6-yl)spiro-[cyclo-propane-1,3′-indolin]-2′-one] | anti-agiogenic effects at submicromolar concentrations
3 | – | – | – | CN(C)Cc1ccc(/C=C/c2n[nH]c3cc([C@@H]4C[C@@]45C(=O)Nc4ccccc45)ccc23)cc1 (relative stereo) [Example A23, (1R*,2S*)-(E)-2-(3-(4-((dimethylamino)methyl)styryl)-1H-indazol-6-yl)spiro[cyclopropane-1,3′-indolin]-2′-one 2,2,2-trifluoroacetate] | anti-agiogenic effects at submicromolar concentrations
4 | < 0.1 µM | < 0.1 µM | > 1 µM | COc1ccc2c(c1)[C@]1(C[C@H]1c1ccc3c(-c4cccc(CN5CCOCC5)c4)n[nH]c3c1)C(=O)N2 (relative stereo) [Example A136, (1R*,2S*)-5′-methoxy-2-(3-(3-(morpholinomethyl)phenyl)-1H-indazol-6-yl)spiro[cyclopropane-1,3′-indolin]-2′-one 2,2,2-trifluoroacetate] | –
